Results as given in patent US20110212053A1, “PHOSPHATIDYLINOSITOL 3 KINASE INHIBITORS” (priority 2008, published 2011).
Several values for one entry are separate records, joined by “and”; a condition that tells them apart may be missing. Equal values may be shown once.

Assays:
[1] = biological target: PIM-1 (Homo sapiens, UniProt P11309); test: Radiometric HotSpot kinase assay, PIM-1; assay type: biochemical; settings: 1 μM compound, 10 μM ATP
Protocol: (§1) Kinase Profiling: The inhibitory activity of the PI3K inhibitor compounds of the invention against 250 protein kinases was determined via the radiometric HotSpot Kinase Profiling (Reaction Biology Corporation, Malvern, Pa.). Compounds were profiled at a final concentration of 1 μM compound against recombinant protein kinases in the presence of 10 μM ATP and data were expressed as percent inhibition. IC50 and/or percent inhibition at 1 μM compound values were determined for select compounds against a subset of kinases (MELK, MNK1, MNK2, mTOR, PIM-1. TRKC, and PDGFRα(D842V)).
(§2) Compounds of the invention were assayed against the select kinases using the KinaseGLO assay (MELK) or the radiometric assay (PIM, TRKC, PDGFRα(D842V), MNK1 and mTOR). IC50 values were determined using 8-10 point half-log dose dilutions and calculated via nonlinear regression analysis using Graphpad Prism data analysis software.

[2] = biological target: PDGFRα(D842V) (Homo sapiens, UniProt P16234, D842V); test: Radiometric HotSpot kinase assay, PDGFRα(D842V); assay type: biochemical
Protocol: as §1, §2

[3] = biological target: T1, MELK (Homo sapiens, UniProt Q14680); test: MELK kinase assay (KinaseGLO); assay type: biochemical
T1 construct: purchased Invitrogen or Millipore
Protocol: (§3) Compound Preparation: KinaseGLO assay: 30× stocks of inhibitors were prepared in DMSO. A 10 mM master stock was prepared and all other stocks were generated by serial dilution of this master stock in DMSO. The final concentration of DMSO in the kinase reaction was 3.3% (v/v).
MELK kinase assay: The ability of compounds to inhibit MELK was also determined using the KinaseGLO assay. Briefly, MELK enzymes was thawed and diluted to a final concentration of 2.64 ng/μL in reaction buffer (50 mM HEPES, pH7.5, 100 mM NaCl, 2.0 mM DTT, 3.0 mM MgCl2, 1.0 mM EGTA, 10 μM ATP). 19 μl of this kinase reaction mixture was aliquoted into test wells (50 ng MELK/well) in a Microfluor2 white 96-well plate (Thermo Scientific). As a preincubation step, 1 μl of 30× compound dilutions was added to the appropriate test wells to generate a ten point dose-response ranging from 0.0 μM-10 μM inhibitor, and incubated for 15 minutes at 4° C. The reaction was started by addition of 10 μL of 150 μM ZIPtide peptide substrate resuspended in reaction buffer (50 μM final concentration of ZIPtide). Reactions were incubated at room temperature for 2 hours prior to addition of 30 μL of KinaseGLO reagent and development as described. Maximal luminescence (no MELK activity/maximal MELK inhibition) was determined from reaction buffer plus peptide substrate only controls. The minimal signal (maximal MELK activity) was determined by the 0.0 μM compound (DMSO only) control. IC50 values were calculated via non-linear regression using GraphPad Prism data analysis software. […]
as §2

[4] = biological target: T2, PI3Kα (Homo sapiens, UniProt P42336); test: KinaseGLO luminescent PI3-kinase assay, PI3Kα; assay type: biochemical
T2 construct: purchased Invitrogen or Millipore
Protocol: as §3
PI3-Kinase Assay: The KinaseGLO® Luminescent Kinase Assay (Promega) is a luciferin-luciferase based luminescent assay that utilizes a proprietary thermostable luciferase to quantify the ATP remaining in a solution after a kinase reaction. The luminescent signal generated using KinaseGLO® directly correlates with ATP concentration, and therefore inversely correlates with kinase activity.
PI3K enzyme sample was thawed and diluted to 100 ng/μL in enzyme dilution buffer (50 mM HEPES, pH7.5, 3.0 mM MgCl2, 1.0 mM EGTA) and stored on ice. PI3Kα enzyme was diluted to a final concentration of 1 ng/μL in reaction buffer (for PI3Kα; 50 mM HEPES, pH7.5, 100 mM NaCl, 2.0 mM DTT, 3.0 mM MgCl2, 1.0 mM EGTA, 10 μM ATP) and gently mixed. 25 μL of this kinase reaction was then aliquoted into test wells in a Microfluor2 white 96-well plate (Thermo Scientific). As a preincubation step, 1 μl of 30× compound dilutions was added to the appropriate test wells to generate a ten point dose-response ranging from 0.0 μM-10 μM inhibitor. The enzyme-inhibitor mixture was then incubated for 30 minutes at 4° C. After this preincubation, […] (50 μM final concentration) was added to each test well to initiate the kinase reaction. Reactions were incubated at room temperature for 2 hours with moderate shaking. The KinaseGLO® luminescent reagent (Promega) was prepared according to the manufacturer's instructions. Both the KinaseGLO® buffer and substrate were allowed to thaw and equilibrate at room temperature for two hours prior to mixing and use. The PI3-kinase reaction was terminated by the addition of 30 μL of reconstituted KinaseGLO® reagent to each reaction well and then incubated in the dark for 10 minutes at room temperature. Luminescent signal was detected using a SpectraMax M5 (Molecular Devices). Maximal luminescence (no PI3K activity/maximal PI3K inhibition) was determined from reaction buffer plus SC-PI substrate only controls. The minimal signal (maximal PI3K activity) was determined by the 0.0 μM compound (DMSO only) control. IC50 values were calculated via non-linear regression using GraphPad Prism data analysis software.
Compounds were assayed against the Class I PI3Kα, PI3Kβ, PI3Kγ, PI3Kδ, PI3Kα(H1047R) and PI3Kα(E545K) in the KinaseGLO assay as described in Example 2, and against the Class IV PI3K mTOR in the radiometric assay. IC50 values (μM) were determined using 8-10 point half-log dose dilutions and calculated via nonlinear regression analysis using Graphpad Prism data analysis software.

[5] = biological target: TRKC (Homo sapiens, UniProt Q16288); test: Radiometric HotSpot kinase assay, TRKC; assay type: biochemical; settings: 1 μM compound, 10 μM ATP
Protocol: as §1, §2

[6] = tested on: HCT116 colorectal carcinoma cells; test: Caspase-GLO 3/7 assay, HCT116; assay type: cell-based; settings: Homo sapiens, HCT-116, 24 hours, CaspaseGLO
Protocol: Caspase-GLO 3/7 Assay: To determine the ability of the PI3K inhibitor compounds of the invention to induce programmed cell death (apoptosis), caspase activity was monitored as an indicator of apoptosis. Human HCT116 colorectal carcinoma and PANC-1 pancreatic carcinoma cells were plated at 2000-8000 cells per well in white 96-well microplates and allowed to attach overnight. The following day the medium was removed by aspiration and the cells were washed once with 200 μL of DMEM containing 0.5% (v/v) FBS (assay medium). The cells were then incubated in 100 μL of assay medium containing increasing concentrations of the PI3K inhibitor compounds (from 0.003 μM to 10.0 μM in half-log dilutions) for 24 to 72 hours. Caspase activity was detected using the Caspase-GLO 3/7 assay (Promega) according to the manufacturer's instructions and measured on a Spectramax M5 multi-detection microplate reader (Molecular Devices Corp.). EC50 values were calculated via non-linear regression using GraphPad Prism data analysis software.
HCT116 cells were treated overnight with a pyrazoloquinoline compound of the invention, or with a commercially available dual PI3K(α,β,δ,γ)/mTOR inhibitor, or with a commercially available PI3K(α,β,δ,γ)-only inhibitor at concentrations of 0.5, 1.0 and 5.0 μM.

PDGFRα(D842V), sequence (P16234 24-1089 D842V): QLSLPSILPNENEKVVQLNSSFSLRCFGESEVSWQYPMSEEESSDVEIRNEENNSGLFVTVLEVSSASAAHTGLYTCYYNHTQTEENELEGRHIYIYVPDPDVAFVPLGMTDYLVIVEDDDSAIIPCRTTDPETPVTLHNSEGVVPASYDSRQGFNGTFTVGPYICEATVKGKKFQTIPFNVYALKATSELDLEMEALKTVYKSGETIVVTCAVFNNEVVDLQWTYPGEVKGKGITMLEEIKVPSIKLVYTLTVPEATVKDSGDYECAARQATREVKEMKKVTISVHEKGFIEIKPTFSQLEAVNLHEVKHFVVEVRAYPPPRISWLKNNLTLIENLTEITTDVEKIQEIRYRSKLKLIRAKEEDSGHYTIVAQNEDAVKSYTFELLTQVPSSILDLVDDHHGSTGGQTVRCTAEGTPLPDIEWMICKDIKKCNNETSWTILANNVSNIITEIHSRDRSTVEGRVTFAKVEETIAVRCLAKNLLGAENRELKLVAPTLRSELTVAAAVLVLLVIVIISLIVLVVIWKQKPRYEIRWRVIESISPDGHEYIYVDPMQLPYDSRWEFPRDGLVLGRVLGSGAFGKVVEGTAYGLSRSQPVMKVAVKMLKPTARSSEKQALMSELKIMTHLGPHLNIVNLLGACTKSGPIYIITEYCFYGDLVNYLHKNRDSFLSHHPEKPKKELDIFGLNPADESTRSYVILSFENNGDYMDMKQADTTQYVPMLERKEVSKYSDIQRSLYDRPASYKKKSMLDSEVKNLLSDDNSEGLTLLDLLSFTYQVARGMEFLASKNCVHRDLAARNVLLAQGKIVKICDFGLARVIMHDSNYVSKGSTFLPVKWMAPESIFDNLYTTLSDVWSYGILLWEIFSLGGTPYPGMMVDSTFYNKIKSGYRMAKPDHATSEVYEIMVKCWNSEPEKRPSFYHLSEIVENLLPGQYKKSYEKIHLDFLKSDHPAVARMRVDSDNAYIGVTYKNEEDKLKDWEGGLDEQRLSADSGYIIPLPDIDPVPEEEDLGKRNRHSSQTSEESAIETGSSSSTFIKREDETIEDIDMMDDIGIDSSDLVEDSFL
T1 sequence (Q14680 whole entry): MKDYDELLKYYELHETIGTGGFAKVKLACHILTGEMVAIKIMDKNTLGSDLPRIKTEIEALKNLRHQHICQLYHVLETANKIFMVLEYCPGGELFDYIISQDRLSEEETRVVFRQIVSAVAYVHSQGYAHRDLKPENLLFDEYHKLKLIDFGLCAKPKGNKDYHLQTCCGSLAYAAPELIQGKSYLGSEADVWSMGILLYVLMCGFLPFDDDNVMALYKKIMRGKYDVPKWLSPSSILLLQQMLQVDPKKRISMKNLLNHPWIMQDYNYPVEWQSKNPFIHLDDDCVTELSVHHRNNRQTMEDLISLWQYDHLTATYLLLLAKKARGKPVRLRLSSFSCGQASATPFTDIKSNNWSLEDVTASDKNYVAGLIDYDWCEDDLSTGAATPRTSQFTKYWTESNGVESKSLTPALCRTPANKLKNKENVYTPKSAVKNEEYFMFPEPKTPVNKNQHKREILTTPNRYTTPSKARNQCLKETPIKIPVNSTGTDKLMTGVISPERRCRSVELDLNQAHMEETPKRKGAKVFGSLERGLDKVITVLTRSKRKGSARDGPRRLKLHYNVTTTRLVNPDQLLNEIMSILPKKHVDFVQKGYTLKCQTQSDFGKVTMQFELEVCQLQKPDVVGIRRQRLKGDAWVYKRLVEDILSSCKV
T2 sequence (P42336 whole entry): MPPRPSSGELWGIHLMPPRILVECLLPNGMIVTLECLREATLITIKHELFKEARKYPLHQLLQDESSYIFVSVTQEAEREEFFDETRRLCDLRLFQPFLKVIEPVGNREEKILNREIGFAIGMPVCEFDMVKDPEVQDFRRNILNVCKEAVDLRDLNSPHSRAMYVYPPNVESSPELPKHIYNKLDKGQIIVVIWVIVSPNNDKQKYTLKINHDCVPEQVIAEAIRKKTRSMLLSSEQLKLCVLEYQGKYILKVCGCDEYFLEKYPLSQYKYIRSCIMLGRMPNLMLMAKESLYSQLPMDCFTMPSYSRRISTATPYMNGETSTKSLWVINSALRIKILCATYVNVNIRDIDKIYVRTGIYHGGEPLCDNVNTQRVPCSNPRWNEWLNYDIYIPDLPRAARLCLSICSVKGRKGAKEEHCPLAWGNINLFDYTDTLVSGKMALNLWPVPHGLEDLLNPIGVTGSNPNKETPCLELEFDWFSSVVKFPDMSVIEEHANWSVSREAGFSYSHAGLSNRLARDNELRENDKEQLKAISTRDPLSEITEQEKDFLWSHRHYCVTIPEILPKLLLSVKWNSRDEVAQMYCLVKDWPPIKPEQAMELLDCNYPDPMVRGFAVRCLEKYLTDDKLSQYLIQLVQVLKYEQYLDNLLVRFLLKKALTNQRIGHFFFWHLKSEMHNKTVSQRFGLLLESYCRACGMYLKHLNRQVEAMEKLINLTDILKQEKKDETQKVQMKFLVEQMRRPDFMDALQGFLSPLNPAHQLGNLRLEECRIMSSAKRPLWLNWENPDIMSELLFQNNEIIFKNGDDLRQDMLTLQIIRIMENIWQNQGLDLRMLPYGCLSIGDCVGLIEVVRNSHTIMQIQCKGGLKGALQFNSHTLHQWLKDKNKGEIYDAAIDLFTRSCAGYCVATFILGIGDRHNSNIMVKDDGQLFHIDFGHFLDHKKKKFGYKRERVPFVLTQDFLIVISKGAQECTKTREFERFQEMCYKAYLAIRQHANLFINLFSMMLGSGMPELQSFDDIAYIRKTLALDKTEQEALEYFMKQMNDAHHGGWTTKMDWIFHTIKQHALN
T2 sequence (P27986 whole entry partner): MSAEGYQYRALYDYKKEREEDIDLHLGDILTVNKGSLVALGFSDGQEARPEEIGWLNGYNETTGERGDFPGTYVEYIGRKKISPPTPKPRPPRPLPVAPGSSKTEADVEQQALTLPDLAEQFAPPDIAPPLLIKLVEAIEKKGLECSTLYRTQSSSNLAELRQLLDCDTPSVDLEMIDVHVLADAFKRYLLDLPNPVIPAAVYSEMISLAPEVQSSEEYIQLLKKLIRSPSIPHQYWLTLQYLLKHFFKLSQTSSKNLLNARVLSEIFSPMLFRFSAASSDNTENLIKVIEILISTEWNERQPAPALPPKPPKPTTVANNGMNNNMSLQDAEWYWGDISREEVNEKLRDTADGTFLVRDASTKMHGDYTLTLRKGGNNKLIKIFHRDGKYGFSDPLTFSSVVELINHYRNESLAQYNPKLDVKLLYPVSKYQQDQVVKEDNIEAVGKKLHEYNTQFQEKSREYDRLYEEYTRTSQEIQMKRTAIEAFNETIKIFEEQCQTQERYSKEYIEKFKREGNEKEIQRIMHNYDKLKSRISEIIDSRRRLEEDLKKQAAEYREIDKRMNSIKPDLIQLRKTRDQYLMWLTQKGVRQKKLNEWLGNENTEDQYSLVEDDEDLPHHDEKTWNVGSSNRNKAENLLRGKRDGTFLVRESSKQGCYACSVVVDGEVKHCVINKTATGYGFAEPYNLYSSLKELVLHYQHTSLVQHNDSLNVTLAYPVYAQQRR
TRKC, sequence (Q16288 32-839): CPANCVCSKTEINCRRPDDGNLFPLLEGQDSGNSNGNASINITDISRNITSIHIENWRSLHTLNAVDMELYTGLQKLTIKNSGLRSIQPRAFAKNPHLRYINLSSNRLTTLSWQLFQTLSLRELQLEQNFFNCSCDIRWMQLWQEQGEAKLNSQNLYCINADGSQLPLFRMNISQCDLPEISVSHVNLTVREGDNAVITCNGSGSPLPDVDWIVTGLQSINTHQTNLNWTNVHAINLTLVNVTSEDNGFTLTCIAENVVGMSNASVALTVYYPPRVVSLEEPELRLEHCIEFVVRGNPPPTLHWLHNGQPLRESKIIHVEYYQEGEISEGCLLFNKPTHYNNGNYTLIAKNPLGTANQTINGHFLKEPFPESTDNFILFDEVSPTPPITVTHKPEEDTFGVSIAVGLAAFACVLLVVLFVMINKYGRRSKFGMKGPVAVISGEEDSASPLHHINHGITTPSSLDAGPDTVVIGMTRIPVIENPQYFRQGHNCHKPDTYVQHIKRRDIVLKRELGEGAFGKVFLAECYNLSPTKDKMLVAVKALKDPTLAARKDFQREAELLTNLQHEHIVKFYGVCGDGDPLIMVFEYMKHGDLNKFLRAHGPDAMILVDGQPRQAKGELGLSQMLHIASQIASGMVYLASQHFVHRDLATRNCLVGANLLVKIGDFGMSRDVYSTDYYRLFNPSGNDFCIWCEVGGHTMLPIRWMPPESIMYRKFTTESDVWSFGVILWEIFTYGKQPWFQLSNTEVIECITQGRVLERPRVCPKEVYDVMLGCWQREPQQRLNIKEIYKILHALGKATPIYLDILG
PIM-1, sequence (P11309 whole entry): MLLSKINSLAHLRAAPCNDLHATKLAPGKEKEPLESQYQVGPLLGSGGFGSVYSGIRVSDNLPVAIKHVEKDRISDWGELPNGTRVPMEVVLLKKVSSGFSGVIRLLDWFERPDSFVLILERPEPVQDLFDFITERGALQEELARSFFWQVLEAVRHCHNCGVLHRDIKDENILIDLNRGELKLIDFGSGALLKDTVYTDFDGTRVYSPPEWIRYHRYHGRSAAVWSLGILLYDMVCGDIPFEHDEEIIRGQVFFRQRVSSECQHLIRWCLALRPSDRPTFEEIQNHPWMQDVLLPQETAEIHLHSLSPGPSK

| SMILES | inhibition at 1 µM [1] [%] | IC50 [2] [nM] | IC50 [3] | IC50 [4] [nM] | inhibition at 1 µM [5] [%] | EC50 [6] [nM] |
| --- | --- | --- | --- | --- | --- | --- |
| CC(C)(C#N)c1ccc(-c2n[nH]c3cnc4ccc(-c5cncnc5)cc4c23)cc1 [Compound 1108, 2-methyl-2-(4-(8-(pyrimidin-5-yl)-3H-pyrazolo[3,4-c]quinolin-1-yl)phenyl)propanenitrile] | 60 to 85 | > 100 | 12 to 20 nM and > 30 nM | < 10 | > 97 | – |
| CC(C)(C#N)c1ccc(-c2n[nH]c3cnc4ccc(-c5ccn6ncnc6c5)cc4c23)cc1 [Compound 1111] | > 95 | – | 20 to 30 nM | > 20 | > 97 | – |
| CC(C)(C#N)c1ccc(-c2n[nH]c3cnc4ccc(-c5cc(F)cc(F)c5)cc4c23)cc1 [Compound 1112, 2-(4-(8-(3,5-difluorophenyl)-3H-pyrazolo[3,4-c]quinolin-1-yl)phenyl)-2-methylpropanenitrile] | – | > 100 | > 30 nM | – | ≥ 75 | – |
| CC(C)(C#N)c1ccc(-c2n[nH]c3cnc4ccc(-c5cccc(Cl)c5)cc4c23)cc1 [Compound 1113, 2-(4-(8-(3-chlorophenyl)-3H-pyrazolo[3,4-c]quinolin-1-yl)phenyl)-2-methylpropanenitrile] | 50 to 60 | > 100 | > 30 nM | – | ≥ 70 | – |
| CC(C)(C#N)c1ccc(-c2n[nH]c3cnc4ccc(-c5ccc6c(c5)CC=N6)cc4c23)cc1 [Compound 1114, 2-(4-(8-(3H-indol-5-yl)-3H-pyrazolo[3,4-c]quinolin-1-yl)phenyl)-2-methylpropanenitrile] | – | > 100 | > 30 nM | > 20 | – | – |
| COc1cccc(-c2ccc3ncc4[nH]nc(-c5ccc(C(C)(C)C#N)cc5)c4c3c2)c1 [Compound 1115, 2-(4-(8-(3-methoxyphenyl)-3H-pyrazolo[3,4-c]quinolin-1-yl)phenyl)-2-methylpropanenitrile] | 60 to 85 | > 1000 | > 30 nM | – | > 60 | – |
| CC(C)(C#N)c1ccc(-c2n[nH]c3cnc4ccc(-c5ccc(F)cc5)cc4c23)cc1 [Compound 1116, 2-(4-(8-(4-fluorophenyl)-3H-pyrazolo[3,4-c]quinolin-1-yl)phenyl)-2-methylpropanenitrile] | 60 to 85 | – | > 30 nM | – | ≥ 75 | – |
| COc1ccc(-c2ccc3ncc4[nH]nc(-c5ccc(C(C)(C)C#N)cc5)c4c3c2)cc1 [Compound 1117, 2-(4-(8-(4-methoxyphenyl)-3H-pyrazolo[3,4-c]quinolin-1-yl)phenyl)-2-methylpropanenitrile] | 60 to 85 | – | > 30 nM | – | > 50 | – |
| COc1ccc(-c2ccc3ncc4[nH]nc(-c5ccc(C(C)(C)C#N)cc5)c4c3c2)cn1 [Compound 1118, 2-(4-(8-(6-methoxypyridin-3-yl)-3H-pyrazolo[3,4-c]quinolin-1-yl)phenyl)-2-methylpropanenitrile] | – | > 1000 | > 30 nM | < 10 | – | – |
| CC(C)(C#N)c1ccc(-c2n[nH]c3cnc4ccc(-c5cccc(Nc6ccccn6)c5)cc4c23)cc1 [Compound 1120, 2-methyl-2-(4-(8-(3-(pyridin-2-ylamino)phenyl)-3H-pyrazolo[3,4-c]quinolin-1-yl)phenyl)propanenitrile] | – | – | – | > 20 | – | – |
| CC(C)(C#N)c1ccc(-c2n[nH]c3cnc4ccc(-c5cccc(Nc6ccncc6)c5)cc4c23)cc1 [Compound 1121, 2-methyl-2-(4-(8-(3-(pyridin-4-ylamino)phenyl)-3H-pyrazolo[3,4-c]quinolin-1-yl)phenyl)propanenitrile] | > 95 | > 100 | 12 to 20 nM | > 20 | > 97 | – |
| Cc1cccc(-c2ccc3ncc4[nH]nc(-c5ccc(C(C)(C)C#N)cc5)c4c3c2)c1 [Compound 1123, 2-methyl-2-(4-(8-m-tolyl-3H-pyrazolo[3,4-c]quinolin-1-yl)phenyl)propanenitrile] | 50 to 60 | > 1000 | > 30 nM | – | > 60 | – |
| Cc1ccccc1-c1ccc2ncc3[nH]nc(-c4ccc(C(C)(C)C#N)cc4)c3c2c1 [Compound 1124, 2-methyl-2-(4-(8-o-tolyl-3H-pyrazolo[3,4-c]quinolin-1-yl)phenyl)propanenitrile] | – | – | > 30 nM | – | > 60 | – |
| CC(C)(C#N)c1ccc(-c2n[nH]c3cnc4ccc(-c5ccccc5)cc4c23)cc1 [Compound 1125, 2-methyl-2-(4-(8-phenyl-3H-pyrazolo[3,4-c]quinolin-1-yl)phenyl)propanenitrile] | 60 to 85 | > 1000 | > 30 nM | – | ≥ 75 | – |
| Cc1ccc(-c2ccc3ncc4[nH]nc(-c5ccc(C(C)(C)C#N)cc5)c4c3c2)cc1 [Compound 1126, 2-methyl-2-(4-(8-p-tolyl-3H-pyrazolo[3,4-c]quinolin-1-yl)phenyl)propanenitrile] | – | – | > 30 nM | – | – | – |
| CN[C@@H]1C[C@H]2O[C@@](C)([C@@H]1OC)n1c3ccccc3c3c4c(c5c6ccccc6n2c5c31)C(=O)NC4 [staurosporine] | – | – | – | – | – | 7 |
